Data set [1] has as its target T1, Coagulation factor VII (Homo sapiens) (UniProt P08709).
T1 sequence (whole entry): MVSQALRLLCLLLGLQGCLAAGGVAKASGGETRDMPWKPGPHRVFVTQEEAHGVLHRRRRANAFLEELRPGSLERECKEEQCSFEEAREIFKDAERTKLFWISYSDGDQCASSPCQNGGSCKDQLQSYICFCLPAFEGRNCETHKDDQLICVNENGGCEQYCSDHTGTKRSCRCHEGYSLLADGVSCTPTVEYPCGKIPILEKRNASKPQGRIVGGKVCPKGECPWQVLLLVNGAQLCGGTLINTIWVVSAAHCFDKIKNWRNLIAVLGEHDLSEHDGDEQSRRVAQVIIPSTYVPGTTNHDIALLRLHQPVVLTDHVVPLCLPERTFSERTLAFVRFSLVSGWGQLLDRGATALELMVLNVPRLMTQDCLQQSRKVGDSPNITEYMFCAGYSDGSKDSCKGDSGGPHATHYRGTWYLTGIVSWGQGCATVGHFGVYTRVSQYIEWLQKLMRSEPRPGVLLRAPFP
Kind of data set: Inhibition of recombinant F7a using S-2288 as substrate after 15 mins by competitive binding assay relative to control.

The target in data set [2] is T2, Prothrombin (Homo sapiens, UniProt P00734). Kind of data set: Inhibition of thrombin using S-2288 as substrate after 15 mins by competitive binding assay relative to control.
For data set [3], the target named is T3, Coagulation factor X (Homo sapiens, UniProt P00742). Kind of data set: Inhibition of F10a using S-2288 as substrate after 15 mins by competitive binding assay relative to control.
Data set [4] in a line: Solubility of the compound in buffer. Format: physicochemical.
In data set [5] the target is T4, Coagulation factor VII (Homo sapiens, UniProt P08709).
T4 sequence (P08709 whole entry): T1 sequence (whole entry)
In words: Inhibition of recombinant F7a using S-2288 as substrate after 15 mins by competitive binding assay.

The target in data set [6] is T4, Coagulation factor VII. In words: Inhibition of recombinant F7a using S-2288 as substrate after 15 mins by linear fitting analysis.
For data set [7], the target named is T2, Prothrombin. Kind of data set: Inhibition of thrombin using S-2288 as substrate after 15 mins by competitive binding assay.
Data set [8] deals with T3, Coagulation factor X. Kind of data set: Inhibition of F10a using S-2288 as substrate after 15 mins by competitive binding assay.

24 compounds from ChEMBL document CHEMBL1795213, “Design, synthesis and biological activity of novel peptidyl benzyl ketone FVIIa inhibitors” (Bioorg Med Chem Lett, 2011) can be followed below.

Broadly, the inhibition is the share of the control response that was lost under treatment. As a reminder, the solubility is the dissolved amount per volume that the medium holds. Low values mean little dissolved substance, high ones much dissolved substance. The IC50 is the concentration that gives 50% inhibition. What is called Ki is a dissociation constant, usually derived from enzyme kinetics or from competition with a known ligand.

SMILES strings stand for the structures. Values after ≈ are worked out from the molar mass of the structure shown.

Consider `C[C@@H](O)[C@H](NC(=O)[C@@H](N)Cc1ccc(O)cc1)C(=O)N[C@@H](CCCCNC(=N)N)C(=O)Cc1ccccc1`, for which the inhibition was 18.9% in data set [1], 5.5% on Prothrombin [2] and 30.4% at Coagulation factor X [3].
Compound `N=C(N)NCCC[C@H](NC(=O)[C@H](Cc1ccccc1)NC(=O)[C@@H](N)Cc1ccccc1)C(=O)Cc1ccccc1` came in with a solubility in data set [4] of 400 µM (≈ 217 µg/mL). Further, the IC50 at Coagulation factor VII [5] is over 1480 µM.
The compound `Cc1c(C)c(S(=O)(=O)NC(=N)NCCC[C@H](NC(=O)[C@@H](NC(=O)OC(C)(C)C)[C@@H](C)OCc2ccccc2)C(=O)Cc2ccccc2)c(C)c2c1OC(C)(C)CC2` came in with a solubility in data set [4] of 400 µM (≈ 322 µg/mL).
Regarding `Cc1c(C)c(S(=O)(=O)NC(=N)NCCCC[C@H](NC(=O)[C@H](CC(C)C)NC(=O)[C@H](Cc2ccc(OCc3ccccc3)cc2)NS(=O)(=O)Cc2ccccc2)C(=O)Cc2ccccc2)c(C)c2c1OC(C)(C)CC2`, the solubility in data set [4] stood at 400 µM (≈ 420 µg/mL).
`C[C@@H](O)[C@H](NC(=O)[C@@H](N)Cc1ccc(O)cc1)C(=O)N[C@@H](CCCNC(=N)N)C(=O)Cc1ccccc1` showed a solubility in data set [4] of 400 µM (≈ 205 µg/mL). For the same compound, the IC50 at Coagulation factor VII [5] was over 1340 µM.
As to `N=C(N)NCCC[C@H](NC(=O)[C@H](Cc1ccccc1)NC(=O)[C@H](Cc1ccccc1)NC(=O)OCc1ccccc1)C(=O)Cc1ccccc1`, the concentration in solution in data set [4] (solubility) came to 400 µM (≈ 271 µg/mL). For the same compound, at Coagulation factor VII [5], the half-maximal inhibitory concentration (IC50) came to 109 µM. Also, on Coagulation factor VII [6], the inhibition constant (Ki) came to 89 µM.
For `Cc1c(C)c(S(=O)(=O)NC(=N)NCCCC[C@H](NC(=O)[C@H](Cc2ccccc2)NC(=O)[C@H](Cc2ccccc2)NC(=O)OCc2ccccc2)C(=O)Cc2ccccc2)c(C)c2c1OC(C)(C)CC2`, the concentration in solution in data set [4] (solubility) was 400 µM (≈ 383 µg/mL).
`Cc1c(C)c(S(=O)(=O)NC(=N)NCCC[C@H](NC(=O)[C@H](CC(C)C)NC(=O)OC(C)(C)C)C(=O)Cc2ccccc2)c(C)c2c1OC(C)(C)CC2`: the solubility in data set [4] was 400 µM (≈ 291 µg/mL).
In data set [4], `Cc1c(C)c(S(=O)(=O)NC(=N)NCCCC[C@H](NC(=O)[C@H](Cc2ccccc2)NC(=O)[C@@H](Cc2ccccc2)NC(=O)OCc2ccccc2)C(=O)Cc2ccccc2)c(C)c2c1OC(C)(C)CC2` registered a solubility of 400 µM (≈ 383 µg/mL).
Consider `Cc1c(C)c(S(=O)(=O)NC(=N)NCCC[C@H](NC(=O)[C@H](Cc2ccccc2)NC(=O)OC(C)(C)C)C(=O)Cc2ccccc2)c(C)c2c1OC(C)(C)CC2`, for which the solubility in data set [4] is 400 µM (≈ 305 µg/mL).
Turning to `C[C@@H](O)[C@H](NC(=O)[C@@H](N)Cc1ccc(O)cc1)C(=O)N[C@@H](CCCCN=C(N)N)C(=O)Cc1ccccc1`, the IC50 at Prothrombin [7] and on Coagulation factor X [8] was over 1340 µM throughout.
Regarding `CC(=O)N[C@@H](Cc1ccccc1)C(=O)N[C@@H](Cc1ccccc1)C(=O)N[C@@H](CCCNC(=N)N)C(=O)Cc1ccccc1`, the concentration in solution in data set [4] (solubility) came to 400 µM (≈ 234 µg/mL). Also, on Coagulation factor VII [5], the half-maximal inhibitory concentration (IC50) was over 400 µM.
`Cc1c(C)c(S(=O)(=O)NC(=N)NCCCC[C@H](NC(=O)[C@@H](NC(=O)[C@H](Cc2ccc(OCc3ccccc3)cc2)NS(=O)(=O)Cc2ccccc2)[C@@H](C)OCc2ccccc2)C(=O)Cc2ccccc2)c(C)c2c1OC(C)(C)CC2` showed a solubility in data set [4] of 400 µM (≈ 451 µg/mL).
`Cc1c(C)c(S(=O)(=O)NC(=N)NCCCC[C@H](NC(=O)[C@H](CC(C)C)NC(=O)[C@H](Cc2ccc(OCc3ccccc3)cc2)NC(=O)OC(C)(C)C)C(=O)Cc2ccccc2)c(C)c2c1OC(C)(C)CC2`: in data set [4], the solubility was found to be 400 µM (≈ 398 µg/mL).
With `Cc1c(C)c(S(=O)(=O)NC(=N)NCCCC[C@H](NC(=O)[C@H](Cc2ccccc2)NC(=O)[C@@H](Cc2ccccc2)NC(=O)OC(C)(C)C)C(=O)Cc2ccccc2)c(C)c2c1OC(C)(C)CC2`, the solubility in data set [4] amounted to 400 µM (≈ 369 µg/mL).
Compound `N=C(N)NCCC[C@H](NC(=O)[C@H](Cc1ccccc1)NC(=O)[C@@H](Cc1ccccc1)NC(=O)OCc1ccccc1)C(=O)Cc1ccccc1` had a solubility in data set [4] of 400 µM (≈ 271 µg/mL). Moreover, at Coagulation factor VII [5], the 50% inhibitory concentration (IC50) came to 16 µM. The Ki on Coagulation factor VII [6] was found to be 8 µM.
As for `CC(C)C[C@H](NC(=O)[C@H](Cc1ccccc1)NS(=O)(=O)Cc1ccccc1)C(=O)N[C@@H](CCCNC(=N)N)C(=O)Cc1ccccc1`, in data set [4], the concentration in solution (solubility) came to 400 µM (≈ 265 µg/mL). In addition, the IC50 on Coagulation factor VII [5] was over 580 µM.
Turning to `N=C(N)NCCC[C@H](NC(=O)[C@H](Cc1ccccc1)NC(=O)[C@@H](Cc1ccccc1)NS(=O)(=O)Cc1ccccc1)C(=O)Cc1ccccc1`, the solubility in data set [4] amounted to 400 µM (≈ 279 µg/mL). Further, on Coagulation factor VII [5], the half-inhibitory concentration (IC50) came to 640 µM.
In data set [4], `CC(=O)N[C@@H](Cc1ccc(O)cc1)C(=O)N[C@H](C(=O)N[C@@H](CCCNC(=N)N)C(=O)Cc1ccccc1)[C@@H](C)O` yielded a solubility of 400 µM (≈ 222 µg/mL). Further, on Coagulation factor VII [5], the concentration for half-maximal inhibition (IC50) is over 1340 µM.
Consider `N=C(N)NCCC[C@H](NC(=O)[C@H](Cc1ccccc1)NC(=O)[C@H](Cc1ccccc1)NS(=O)(=O)Cc1ccccc1)C(=O)Cc1ccccc1`, for which, in data set [4], the solubility was determined as 400 µM (≈ 279 µg/mL). Besides, on Coagulation factor VII [5], the half-maximal inhibitory concentration (IC50) stood at 26 µM. Also, on Coagulation factor VII [6], the Ki came out at 43 µM.
As to `CC(=O)N[C@@H](Cc1ccccc1)C(=O)N[C@@H](Cc1ccccc1)C(=O)N[C@@H](CCCCNC(=N)NS(=O)(=O)c1c(C)c(C)c2c(c1C)CCC(C)(C)O2)C(=O)Cc1ccccc1`, the solubility in data set [4] is 400 µM (≈ 346 µg/mL).
Still for that read-out and setting: the same measure for `Cc1c(C)c(S(=O)(=O)NC(=N)NCCCC[C@H](NC(=O)[C@H](Cc2ccccc2)NC(=O)[C@H](Cc2ccccc2)NC(=O)OC(C)(C)C)C(=O)Cc2ccccc2)c(C)c2c1OC(C)(C)CC2`: 400 µM (≈ 369 µg/mL); for `CC(=O)N[C@@H](Cc1ccc(OCc2ccccc2)cc1)C(=O)N[C@H](C(=O)N[C@@H](CCCCNC(=N)NS(=O)(=O)c1c(C)c(C)c2c(c1C)CCC(C)(C)O2)C(=O)Cc1ccccc1)[C@@H](C)OCc1ccccc1`: 400 µM (≈ 406 µg/mL); for `Cc1c(C)c(S(=O)(=O)NC(=N)NCCCC[C@H](NC(=O)[C@H](CC(C)C)NC(=O)[C@H](Cc2ccccc2)NC(=O)OC(C)(C)C)C(=O)Cc2ccccc2)c(C)c2c1OC(C)(C)CC2`: 400 µM (≈ 356 µg/mL).
